Measured values published in patent US20200255492A1, “LEPTIN PEPTIDES AND THEIR USE FOR TREATING NEUROLOGICAL DISORDERS” (UNIVERSITY OF DUNDEE, priority 2017, published 2020).

Columns and labels:
[1] = system: mice; experiment: Murine episodic-like memory test with hexamers; type: in vivo; conditions: IP 7.8 nM/ml; tested 45 minutes post-injection; vs saline
Method: FIG. 24. Bar chart of the quantification of the fluorescent signal per cell following thioflavin S staining of neuronal cultures 96 hours after seeding with 1 μM Amyloid (Ab1-42). Cultures were established in triplicate on 3 separate occasions and statistical significance relative to control untreated cultures is denoted by *** where P<0.001 (A). […] 3 groups of mice (n=8 per group) were IP injected with saline (control) on 7.8 nM/ml leptin116-121 or […]. Memory performance was tested 45 minutes post-injection. Statistical significance relative to saline-injected animals is denoted by * where P<0.05. […] Leptin levels were determined by ELISA, using a commercially-supplied kit (Sigma, UK) and using blood serum harvested 24 hours post injection.
Further to this we have evaluated the effects of these hexamer peptides on episodic memory in mice. There is an 8 fold increase in episodic memory performance following treatment with leptin116-121 or […] (FIG. 24B). This implies that both leptin hexamers enhance the ability of the mice to recognise the presence of a novel object within the test arena.

[2] = Samson et al. 1996; cited from earlier work
[3] = system: STAT3; experiment: ELISA ratio of phospho-STAT3 to pan-STAT3; type: cell-based, human; conditions: 1 nM; 3 h
Method: (§1) The human neuroblastoma cell line, SH-SY5Y (ECACC, UK) was maintained in Dulbecco's Modified Eagle Medium supplemented with glucose ([…]) and 10% (v/v) cosmic calf serum (Fisher Scientific, UK) at 37° C. in a humidified atmosphere of 5% CO2, 95% air and allowed to reach 70-80% confluence before seeding. Cells (passage 10-18) were plated at 10 000 cells per well in 96 well tissue culture plates (Nunc, VWR, UK) and at a density of 2×10^5 cells in 35 mm dishes for protein extraction. To induce differentiation, cells were cultured in DMEM supplemented with glucose ([…]), 1% (v/v) cosmic calf serum and 10 μM retinoic acid for 5 days. Thereafter they were incubated in DMEM supplemented with glucose ([…]), serum replacement 2 (2%; Sigma, UK) and 18 μM 5-fluorodeoxyuridine to inhibit proliferation of undifferentiated cells. The 50% of the medium was changed every 2-3 days and pharmacological treatment was carried out 7 days after switching to this medium. Reagents used were (from Sigma UK unless stated) 0.1-10 nM human leptin and leptin (116-130); 0.1-10 nM leptin (22-56; Bachem; Switzerland); 10 nM leptin (116-121) leptin (117-122), leptin (124-129) or leptin (125-130; all Severn Biotech, UK); 5 μM copper chloride; […], 5 μM WP1066 or 50 nM wortmannin. […]

[4] = system: Akt; experiment: ELISA ratio of phospho-Akt to pan-Akt; type: cell-based, human; conditions: 1 nM; 3 h
Method: as §1

[5] = system: SH-SY5Y neural cells; experiment: Serum/glucose deprivation (in vitro model of stroke), crystal violet assay; type: cell-based, human; conditions: 96 hours; range of concentrations
Method: Cultures were established on 7 separate occasions in quadruplicate and starved of serum and glucose when they reached 70% confluence. Neural cell viability in response to a range of concentrations of leptin116-130 was determined 96 hours later using a crystal violet assay to measure cell number. Statistical significance relative to serum/glucose deprivation is denoted with ** where P<0.01 and *** where P<0.001. Photomicrographs of serum/glucose deprived cultures and of serum/glucose deprived cultures treated with 0.1 nM leptin116-130 (B) further highlight the enhanced cell number in the presence of leptin116-130. Scale bar represents 25 μm. […]
The concentration of lactate dehydrogenase (LDH) in the culture medium or the mitochondrial activity within cells was used to monitor the level of cell death, as previously (Oldreive and Doherty 2010). […] Plates were washed 5-10 times in dH2O and cells solubilised in 100 μl dimethyl sulfoxide (DMSO) before reading the absorbance on a Biohit BP100 plate reader. For all assays, data is expressed as percentage relative to control, untreated wells to normalize for differences in plating density between individual experiments.

[6] = system: mitochondria; experiment: MitoRed analysis of mitochondrial morphology after 6-OHDA (cellular Parkinson's Disease model); type: cell-based; conditions: 0.1 nM plus 100 μM 6-OHDA; 1 hour
Method: Cultures were established on 3 separate occasions in quadruplicate and stained with MitoRED to identify mitochondria after 1 hour of treatment. Statistical significance relative to untreated control is denoted with ** where P<0.01 and *** where P<0.001. Representative images of 100 μM 6-OHDA-treated MitoRED stained cultures (C) and 100 μM 6-OHDA and leptin116-130 co-treated MitoRED stained cultures are shown. Scale bar represents […].
The human neuroblastoma cell line, SH-SY5Y (ECACC, UK) was maintained in Dulbecco's Modified Eagle Medium supplemented with glucose ([…]) and 10% (v/v) cosmic calf serum (Fisher Scientific, UK) at 37° C. in a humidified atmosphere of 5% CO2, 95% air and allowed to reach 70-80% confluence before seeding. Cells (passage 10-18) were plated at 2×10^5 cells on 13 mm borosilicate class coverslips or at 10 000 cells per well in 96 well tissue culture plates (Nunc, VWR, UK) prior to treatment. Reagents used were (from Sigma UK unless stated) 1 nM human leptin, leptin (116-121), leptin (117-122) and leptin (117-125); 0.0001-1 nm murine leptin fragments leptin (116-121), leptin (117-122) and leptin (116-130); 100 μM 6-hydroxydopamine; 10 μM CuCl2; […] Aβ1-42.
Cells were treated with pre-warmed cell culture medium containing 1 μM MitoRed ((9-[2-(4′-Methylcoumarin-7′-oxycarbonyl)phenyl]-3,6-bis(diethylamino)xanthylium chloride) and returned to the incubator for 45 minutes. Following fixation in NBF for 15 minutes, cells were washed 3 times in PBS. Coverslips were mounted in fluorescence mountant onto microscope slides and imaged on the Zeiss Axio MR2 microscope. The mean mitochondrial area and index of fragmentation (number of mitochondria: total area of mitochondrial material) were calculated using Fiji.

CSLPQT (listed as Mus musculus) [leptin (117-122)]
increase in episodic memory performance [1]: 8 fold

SCSLPQ (listed as Mus musculus) [leptin (116-121)]
increase in episodic memory performance [1]: 8 fold

leptin (22-56): leptin fragment amino acids 22-56 (Bachem), comparison fragment (VPIQKVQDDTKTLIKTIVTRINDISHTQSVSSKQK; UniProt P41159 22-56, looked up, fragment) [reference compound]
food intake [2]: significant reductions in food intake

SCSLPQTSGLQKPES (listed as Mus musculus) [leptin (116-130)]
ratio of phosphorylated STAT3 to pan STAT3 [3]: increased markedly | ratio of phosphorylated Akt to pan Akt [4]: an increase in the ratio of phosphorylated Akt to pan Akt | survival following serum/glucose deprivation [5]: significant neuroprotection | mitochondrial clumping (fragmentation index) with 6-OHDA [6]: prevents 6-OHDA-associated mitochondrial clumping | mitochondrial swelling (mean mitochondrial area) with 6-OHDA [6]: prevents 6-OHDA-associated mitochondrial swelling
